{"source": "ChEMBL document CHEMBL1201862", "about": "“PubChem BioAssay data set” (2004)", "test_in_all_cases": "DTP human tumour cell line panel, 48 h", "key": {"[1]": {"system": "786-0"}, "[2]": {"system": "A549"}, "[3]": {"system": "ACHN"}, "[4]": {"system": "CAKI-1"}, "[5]": {"system": "COLO 205"}, "[6]": {"system": "DMS-114"}, "[7]": {"system": "DMS-273"}, "[8]": {"system": "EKVX"}, "[9]": {"system": "HCC 2998"}, "[10]": {"system": "HCT-116"}, "[11]": {"system": "HCT-15"}, "[12]": {"system": "HT-29"}, "[13]": {"system": "IGROV-1"}, "[14]": {"system": "K562"}, "[15]": {"system": "KM-20L2"}, "[16]": {"system": "KM12"}, "[17]": {"system": "LXFL 529"}, "[18]": {"system": "M19-MEL"}, "[19]": {"system": "MOLT-4"}, "[20]": {"system": "Malme-3M"}, "[21]": {"system": "NCI-H226"}, "[22]": {"system": "NCI-H23"}, "[23]": {"system": "OVCAR-3"}, "[24]": {"system": "OVCAR-5"}, "[25]": {"system": "OVCAR-8"}, "[26]": {"system": "RPMI-8226"}, "[27]": {"system": "RXF 393"}, "[28]": {"system": "SF-268"}, "[29]": {"system": "SF-295"}, "[30]": {"system": "SF-539"}, "[31]": {"system": "SK-MEL-28"}, "[32]": {"system": "SK-MEL-2"}, "[33]": {"system": "SK-MEL-5"}, "[34]": {"system": "SK-OV-3"}, "[35]": {"system": "SN12C"}, "[36]": {"system": "SNB-19"}, "[37]": {"system": "SNB-75"}, "[38]": {"system": "SNB-78"}, "[39]": {"system": "SR"}, "[40]": {"system": "SW-620"}, "[41]": {"system": "TK-10"}, "[42]": {"system": "U-251"}, "[43]": {"system": "UACC-257"}, "[44]": {"system": "UACC-62"}, "[45]": {"system": "UO-31"}, "[46]": {"system": "A498"}, "[47]": {"system": "BT-549"}, "[48]": {"system": "CCRF-CEM"}, "[49]": {"system": "DU-145"}, "[50]": {"system": "HL-60"}, "[51]": {"system": "HOP-62"}, "[52]": {"system": "HOP-92"}, "[53]": {"system": "Hs-578T"}, "[54]": {"system": "LOX IMVI"}, "[55]": {"system": "M14"}, "[56]": {"system": "MCF7"}, "[57]": {"system": "MDA-MB-231"}, "[58]": {"system": "MDA-MB-435"}, "[59]": {"system": "MDA-N"}, "[60]": {"system": "NCI-H460"}, "[61]": {"system": "NCI-H522"}, "[62]": {"system": "NCI/ADR-RES"}, "[63]": {"system": "OVCAR-4"}, "[64]": {"system": "PC-3"}, "[65]": {"system": "T47D"}}, "note": "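Values below derive from 48-hour exposures of cells grown in 96-well plates, with endpoints linearly interpolated between the two concentrations bracketing the appropriate inhibition level. GI50: concentration for 50% inhibition of growth.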 Activity calls are given as the source filed them. No stated cut-off is given here; in the data, active = GI50 up to about 1.1 µM and inactive = higher.", "data": [{"smiles": "COc1ccc2c(c1)OCCCN(C)OC2c1ccccc1", "note": "(centres undefined)", "values": [{"measurement": "GI50", "setting": "[1]", "value": "> 100 µM (inactive)"}, {"measurement": "GI50", "setting": "[2]", "value": "> 100 µM (inactive)"}, {"measurement": "GI50", "setting": "[3]", "value": "> 100 µM (inactive)"}, {"measurement": "GI50", "setting": "[4]", "value": "> 100 µM (inactive)"}, {"measurement": "GI50", "setting": "[5]", "value": "> 100 µM (inactive)"}, {"measurement": "GI50", "setting": "[6]", "value": "> 100 µM (inactive)"}, {"measurement": "GI50", "setting": "[7]", "value": "> 100 µM (inactive)"}, {"measurement": "GI50", "setting": "[8]", "value": "> 100 µM (inactive)"}, {"measurement": "GI50", "setting": "[9]", "value": "> 100 µM (inactive)"}, {"measurement": "GI50", "setting": "[10]", "value": "> 100 µM (inactive)"}, {"measurement": "GI50", "setting": "[11]", "value": "> 100000", "unit": "nM"}, {"measurement": "GI50", "setting": "[12]", "value": "> 100 µM (inactive)"}, {"measurement": "GI50", "setting": "[13]", "value": "> 100 µM (inactive)"}, {"measurement": "GI50", "setting": "[14]", "value": "> 100 µM (inactive)"}, {"measurement": "GI50", "setting": "[15]", "value": "> 100 µM (inactive)"}, {"measurement": "GI50", "setting": "[16]", "value": "> 100 µM (inactive)"}, {"measurement": "GI50", "setting": "[17]", "value": "> 100 µM (inactive)"}, {"measurement": "GI50", "setting": "[18]", "value": "> 100 µM (inactive)"}, {"measurement": "GI50", "setting": "[19]", "value": "> 100 µM (inactive)"}, {"measurement": "GI50", "setting": "[20]", "value": "> 100 µM (inactive)"}, {"measurement": "GI50", "setting": "[21]", "value": "> 100 µM (inactive)"}, {"measurement": "GI50", "setting": "[22]", "value": "> 100 µM (inactive)"}, {"measurement": "GI50", "setting": "[23]", "value": "> 100 µM (inactive)"}, {"measurement": "GI50", "setting": "[24]", "value": "> 100 µM (inactive)"}, {"measurement": "GI50", "setting": "[25]", "value": "> 100 µM (inactive)"}, {"measurement": "GI50", "setting": "[26]", "value": "> 100 µM (inactive)"}, {"measurement": "GI50", "setting": "[27]", "value": "> 100 µM (inactive)"}, {"measurement": "GI50", "setting": "[28]", "value": "> 100 µM (inactive)"}, {"measurement": "GI50", "setting": "[29]", "value": "> 100 µM (inactive)"}, {"measurement": "GI50", "setting": "[30]", "value": "> 100 µM (inactive)"}, {"measurement": "GI50", "setting": "[31]", "value": "89.3 µM (inactive)"}, {"measurement": "GI50", "setting": "[32]", "value": "> 100 µM (inactive)"}, {"measurement": "GI50", "setting": "[33]", "value": "> 100 µM (inactive)"}, {"measurement": "GI50", "setting": "[34]", "value": "> 100 µM (inactive)"}, {"measurement": "GI50", "setting": "[35]", "value": "> 100 µM (inactive)"}, {"measurement": "GI50", "setting": "[36]", "value": "> 100 µM (inactive)"}, {"measurement": "GI50", "setting": "[37]", "value": "> 100 µM (inactive)"}, {"measurement": "GI50", "setting": "[38]", "value": "> 100 µM (inactive)"}, {"measurement": "GI50", "setting": "[39]", "value": "> 100 µM (inactive)"}, {"measurement": "GI50", "setting": "[40]", "value": "> 100 µM (inactive)"}, {"measurement": "GI50", "setting": "[41]", "value": "> 100 µM (inactive)"}, {"measurement": "GI50", "setting": "[42]", "value": "> 100 µM (inactive)"}, {"measurement": "GI50", "setting": "[43]", "value": "> 100 µM (inactive)"}, {"measurement": "GI50", "setting": "[44]", "value": "> 100 µM (inactive)"}, {"measurement": "GI50", "setting": "[45]", "value": "> 100 µM (inactive)"}]}, {"smiles": "CCOC(=O)/C=C(/C(=O)OCC)n1ccc(=O)n(/C(=C/C(=O)OCC)C(=O)OCC)c1=O", "values": [{"measurement": "GI50", "setting": "[1]", "value": "2.4 µM (inactive)"}, {"measurement": "GI50", "setting": "[46]", "value": "21.8 µM (inactive)"}, {"measurement": "GI50", "setting": "[2]", "value": "17.3 µM (inactive)"}, {"measurement": "GI50", "setting": "[3]", "value": "3 µM (inactive)"}, {"measurement": "GI50", "setting": "[47]", "value": "15.3 µM (inactive)"}, {"measurement": "GI50", "setting": "[4]", "value": "1.66 µM (inactive)"}, {"measurement": "GI50", "setting": "[48]", "value": "1.37 µM (inactive)"}, {"measurement": "GI50", "setting": "[5]", "value": "1.95 µM (inactive)"}, {"measurement": "GI50", "setting": "[49]", "value": "18.6 µM (inactive)"}, {"measurement": "GI50", "setting": "[8]", "value": "11.4 µM (inactive)"}, {"measurement": "GI50", "setting": "[9]", "value": "18.4 µM (inactive)"}, {"measurement": "GI50", "setting": "[10]", "value": "2.39 µM (inactive)"}, {"measurement": "GI50", "setting": "[11]", "value": 2190, "unit": "nM"}, {"measurement": "GI50", "setting": "[50]", "value": "859 nM (active)"}, {"measurement": "GI50", "setting": "[51]", "value": "25.9 µM (inactive)"}, {"measurement": "GI50", "setting": "[52]", "value": "2.07 µM (inactive)"}, {"measurement": "GI50", "setting": "[12]", "value": "7.74 µM (inactive)"}, {"measurement": "GI50", "setting": "[53]", "value": "20.9 µM (inactive)"}, {"measurement": "GI50", "setting": "[13]", "value": "15.9 µM (inactive)"}, {"measurement": "GI50", "setting": "[14]", "value": "2.99 µM (inactive)"}, {"measurement": "GI50", "setting": "[16]", "value": "17.2 µM (inactive)"}, {"measurement": "GI50", "setting": "[54]", "value": "5.19 µM (inactive)"}, {"measurement": "GI50", "setting": "[55]", "value": "4.98 µM (inactive)"}, {"measurement": "GI50", "setting": "[56]", "value": "6.4 µM (inactive)"}, {"measurement": "GI50", "setting": "[57]", "value": "16.6 µM (inactive)"}, {"measurement": "GI50", "setting": "[58]", "value": "8.34 µM (inactive)"}, {"measurement": "GI50", "setting": "[59]", "value": "13.5 µM (inactive)"}, {"measurement": "GI50", "setting": "[19]", "value": "1.76 µM (inactive)"}, {"measurement": "GI50", "setting": "[20]", "value": "2.79 µM (inactive)"}, {"measurement": "GI50", "setting": "[21]", "value": "8.07 µM (inactive)"}, {"measurement": "GI50", "setting": "[22]", "value": "16 µM (inactive)"}, {"measurement": "GI50", "setting": "[60]", "value": "17.3 µM (inactive)"}, {"measurement": "GI50", "setting": "[61]", "value": "1.61 µM (inactive)"}, {"measurement": "GI50", "setting": "[62]", "value": "22.9 µM (inactive)"}, {"measurement": "GI50", "setting": "[23]", "value": "6.19 µM (inactive)"}, {"measurement": "GI50", "setting": "[63]", "value": "9.93 µM (inactive)"}, {"measurement": "GI50", "setting": "[24]", "value": "17.1 µM (inactive)"}, {"measurement": "GI50", "setting": "[25]", "value": "8.79 µM (inactive)"}, {"measurement": "GI50", "setting": "[64]", "value": "15 µM (inactive)"}, {"measurement": "GI50", "setting": "[26]", "value": "2.7 µM (inactive)"}, {"measurement": "GI50", "setting": "[27]", "value": "3.68 µM (inactive)"}, {"measurement": "GI50", "setting": "[28]", "value": "18.6 µM (inactive)"}, {"measurement": "GI50", "setting": "[29]", "value": "25.6 µM (inactive)"}, {"measurement": "GI50", "setting": "[30]", "value": "18.1 µM (inactive)"}, {"measurement": "GI50", "setting": "[31]", "value": "13.1 µM (inactive)"}, {"measurement": "GI50", "setting": "[32]", "value": "12.7 µM (inactive)"}, {"measurement": "GI50", "setting": "[33]", "value": "14.5 µM (inactive)"}, {"measurement": "GI50", "setting": "[34]", "value": "23.6 µM (inactive)"}, {"measurement": "GI50", "setting": "[35]", "value": "4.43 µM (inactive)"}, {"measurement": "GI50", "setting": "[36]", "value": "20.3 µM (inactive)"}, {"measurement": "GI50", "setting": "[37]", "value": "16.9 µM (inactive)"}, {"measurement": "GI50", "setting": "[39]", "value": "5.28 µM (inactive)"}, {"measurement": "GI50", "setting": "[40]", "value": "2.04 µM (inactive)"}, {"measurement": "GI50", "setting": "[65]", "value": "4.48 µM (inactive)"}, {"measurement": "GI50", "setting": "[41]", "value": "7.08 µM (inactive)"}, {"measurement": "GI50", "setting": "[42]", "value": "14.6 µM (inactive)"}, {"measurement": "GI50", "setting": "[43]", "value": "10.6 µM (inactive)"}, {"measurement": "GI50", "setting": "[44]", "value": "14.8 µM (inactive)"}, {"measurement": "GI50", "setting": "[45]", "value": "15.5 µM (inactive)"}]}]}
